Results as given in patent publication US12673975B2, “Cyclic peptide, cell scaffold material, cell separating material, and medium” (FUJIFILM Corporation, priority 2019, dated 2026).
pKd: −log10 of the molar value. Like-named read-outs stand apart in the source and are kept apart here. Starred links: 1 amine or outer side, 2 acyl side, 3 side chain; linkers in the order of their positions; H or OH if unused. Positions of bridges follow the written chain, without caps; N, C: chain ends. Non-standard residues stand in square brackets, D forms with d. Residues, ends and D or L forms follow the SMILES beside them. Pen = CC(C)(S)[C@H](N)C(=O)O; hCys = N[C@@H](CCS)C(=O)O; Dab = NCC[C@H](N)C(=O)O; X1 = O=C(C[*:2])[*:1]; X2 = O=C(C[*:1])[*:2]

Assays:
human integrin αvβ5 = human integrin αvβ5 (Homo sapiens, UniProt P06756+P18084); assay: Evaluation of integrin binding property (surface plasmon resonance, Biacore 3000, immobilized cyclic peptide)
Procedure, shortened: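 SPR with cyclic peptide amine-coupled via EDC/NHS to a CM5 chip, blank channel as reference. Integrin αvβ5 at 30, 100, 300 and 1,000 nM injected 10 min at 25 °C in HEPES buffer pH 7.4 with 5 mM MgCl2, 30 min buffer flow, EDTA regeneration; Kd from reference-subtracted signals, graded by category.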

[1] = Evaluation of molecule stability (alkali treatment, residual rate by LC/MS); format: physicochemical; conditions: for Performance evaluation: Stability (residual rate of cyclic peptide after alkali treatment): 500 μM peptide aqueous solution plus equivalent of 1 M sodium hydroxide, 15° C., 3 hours, LC/MS peak area; for Stability (molecule stability, residual rate of the cyclic peptide rank): alkali treatment, residual rate by LC/MS
Procedure, shortened: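 500 μM aqueous cyclic peptide mixed with an equal volume of 1 M NaOH and held 3 h at 15 °C. Residual rate is total LC/MS peak area after treatment relative to untreated (100%), using a C18 column, pH 3 ammonium formate/acetonitrile gradient, 45 °C, ESI±.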

[2] = surface plasmon resonance, immobilized cyclic peptide, human integrin αvβ5, read-out: Binding activity (integrin binding property, dissociation constant rank)
[3] = SPR, 25° C., HEPES buffer with 5 mM magnesium chloride, integrin 30-1,000 nM, read-out: Performance evaluation: Binding activity (dissociation constant between the cyclic peptide and human integrin αvβ5)

Chain of human integrin αvβ5 (P06756 31-1048): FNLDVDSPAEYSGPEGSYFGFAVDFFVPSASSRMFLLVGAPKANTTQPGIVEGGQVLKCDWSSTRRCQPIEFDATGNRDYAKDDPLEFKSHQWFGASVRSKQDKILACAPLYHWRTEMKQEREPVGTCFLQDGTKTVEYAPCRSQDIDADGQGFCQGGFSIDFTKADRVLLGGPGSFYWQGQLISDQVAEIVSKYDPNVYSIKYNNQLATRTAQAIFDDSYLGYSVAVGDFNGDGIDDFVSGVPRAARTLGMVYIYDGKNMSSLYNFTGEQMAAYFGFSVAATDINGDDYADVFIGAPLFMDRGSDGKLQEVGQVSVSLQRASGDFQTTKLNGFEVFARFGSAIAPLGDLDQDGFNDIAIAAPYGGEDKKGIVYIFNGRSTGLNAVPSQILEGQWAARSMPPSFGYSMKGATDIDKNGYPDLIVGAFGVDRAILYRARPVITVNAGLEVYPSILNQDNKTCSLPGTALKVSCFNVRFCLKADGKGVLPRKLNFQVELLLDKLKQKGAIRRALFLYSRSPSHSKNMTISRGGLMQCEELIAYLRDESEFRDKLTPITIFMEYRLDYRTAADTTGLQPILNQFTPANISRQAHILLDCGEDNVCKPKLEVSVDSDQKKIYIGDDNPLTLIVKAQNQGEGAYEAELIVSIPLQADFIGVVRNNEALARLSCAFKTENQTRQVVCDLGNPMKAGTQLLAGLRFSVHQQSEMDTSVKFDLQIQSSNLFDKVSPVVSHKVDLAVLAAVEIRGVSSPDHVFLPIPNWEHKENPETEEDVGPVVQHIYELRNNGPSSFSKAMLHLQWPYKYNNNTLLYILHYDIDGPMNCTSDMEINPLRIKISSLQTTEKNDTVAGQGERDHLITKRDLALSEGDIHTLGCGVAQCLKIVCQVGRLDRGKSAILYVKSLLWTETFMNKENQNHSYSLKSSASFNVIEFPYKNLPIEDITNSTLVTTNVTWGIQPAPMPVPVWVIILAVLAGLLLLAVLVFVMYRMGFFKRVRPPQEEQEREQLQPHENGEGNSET
Chain of human integrin αvβ5 (P18084 24-799): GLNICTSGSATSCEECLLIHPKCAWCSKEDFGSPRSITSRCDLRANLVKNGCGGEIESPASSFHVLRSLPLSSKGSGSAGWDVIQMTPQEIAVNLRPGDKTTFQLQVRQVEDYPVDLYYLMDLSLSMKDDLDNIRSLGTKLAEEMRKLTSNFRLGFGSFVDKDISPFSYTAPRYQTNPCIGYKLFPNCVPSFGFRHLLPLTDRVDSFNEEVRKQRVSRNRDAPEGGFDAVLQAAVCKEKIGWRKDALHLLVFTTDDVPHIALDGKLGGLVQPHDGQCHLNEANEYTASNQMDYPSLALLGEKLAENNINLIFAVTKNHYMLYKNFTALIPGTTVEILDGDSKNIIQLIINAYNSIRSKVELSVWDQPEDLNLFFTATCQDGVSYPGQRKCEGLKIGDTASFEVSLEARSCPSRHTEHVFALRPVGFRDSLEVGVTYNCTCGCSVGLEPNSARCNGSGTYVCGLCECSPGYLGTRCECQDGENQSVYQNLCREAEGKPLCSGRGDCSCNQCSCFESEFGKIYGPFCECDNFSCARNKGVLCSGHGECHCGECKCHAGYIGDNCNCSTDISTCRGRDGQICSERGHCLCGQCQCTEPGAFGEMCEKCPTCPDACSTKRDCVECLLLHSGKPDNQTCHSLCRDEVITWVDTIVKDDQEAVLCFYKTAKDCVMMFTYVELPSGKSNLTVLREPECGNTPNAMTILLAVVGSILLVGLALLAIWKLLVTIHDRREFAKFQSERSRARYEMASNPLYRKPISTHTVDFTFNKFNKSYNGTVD

| pKd (human integrin αvβ5; [2]) | pKd (human integrin αvβ5; [3]) | Structure (SMILES) | pKd (human integrin αvβ5) | Performance evaluation: Stability (residual rate of cyclic peptide after alkali treatment) [1] | Stability (molecule stability, residual rate of the cyclic peptide rank) [1] |
| --- | --- | --- | --- | --- | --- |
|  |  | CC(C)[C@@H]1NC(=O)[C@@H](NC(=O)[C@H](CCCCN)NC(=O)[C@H](CCCCN)NC(=O)[C@@H](N)CCCCN)CCSCC(=O)NCC[C@@H](C(=O)O)NC(=O)[C@H](Cc2ccccc2)NC(=O)[C@H](CC(N)=O)NC(=O)[C@H](CC(=O)O)NC(=O)CNC(=O)[C@H](CCCNC(=N)N)NC(=O)[C@@H]2CCCN2C1=O [Cyclic peptide 14, KKK-(Hcy)-VPRGDNF(Dab(acetyl))] (H-KKK[hCys]VPRGDNF[Dab]-OH; linker 4-12 via X2) | > 7.30 | A (The residual rate of the cyclic peptide is 70% or more.) |  |
| 7.00 to 7.30 |  | CC[C@H](C)[C@@H]1NC(=O)[C@@H](NC(=O)[C@H](C)NC(=O)[C@H](CCCCN)NC(=O)[C@H](CCCCN)NC(=O)[C@@H](N)CCCCN)CCNC(=O)CSC(C)(C)[C@@H](C(=O)N[C@@H](C)C(=O)O)NC(=O)[C@H](C)NC(=O)[C@H](Cc2ccccc2)NC(=O)[C@H](CO)NC(=O)[C@H](CC(=O)O)NC(=O)CNC(=O)[C@H](CCCNC(=N)N)NC(=O)[C@@H]2CCCN2C1=O [Cyclic peptide 137, KKKA(Dab(acetyl))IPRGDSFA-(Pen)-A] (H-KKKA[Dab]IPRGDSFA[Pen]A-OH; linker 5-14 via X1) |  |  | A (The residual rate of the cyclic peptide is 70% or more.) |
|  | > 7.30 | CC(C)[C@@H]1NC(=O)[C@@H](NC(=O)CNC(=O)[C@H](CCCCN)NC(=O)[C@H](CCCCN)NC(=O)[C@@H](N)CCCCN)CCSCC(=O)NCC[C@@H](C(=O)N[C@@H](C)C(=O)O)NC(=O)[C@H](CCCNC(=N)N)NC(=O)[C@H](Cc2ccccc2)NC(=O)[C@H]([C@@H](C)O)NC(=O)[C@H](CC(=O)O)NC(=O)CNC(=O)[C@H](CCCNC(=N)N)NC(=O)[C@@H]2CCCN2C1=O [Cyclic peptide 70, KKKG-(Hcy)-VPRGDTFR(Dab(acetyl))A] (H-KKKG[hCys]VPRGDTFR[Dab]A-OH; linker 5-14 via X2) |  | A (The residual rate of the cyclic peptide is 70% or more.) |  |
| > 7.30 |  | CC(C)[C@@H]1NC(=O)[C@@H](NC(=O)[C@H](C)NC(=O)[C@H](CCCCN)NC(=O)[C@H](CCCCN)NC(=O)[C@@H](N)CCCCN)CCNC(=O)CSC(C)(C)[C@@H](C(=O)N[C@@H](C)C(=O)O)NC(=O)[C@H](C)NC(=O)[C@H](Cc2ccccc2)NC(=O)[C@H]([C@@H](C)O)NC(=O)[C@H](CC(=O)O)NC(=O)CNC(=O)[C@H](CCCNC(=N)N)NC(=O)[C@@H]2CCCN2C1=O [Cyclic peptide 136, KKKA(Dab(acetyl))VPRGDTFA-(Pen)-A] (H-KKKA[Dab]VPRGDTFA[Pen]A-OH; linker 5-14 via X1) |  |  | A (The residual rate of the cyclic peptide is 70% or more.) |
|  | > 7.30 | CC[C@H](C)[C@@H]1NC(=O)[C@@H](NC(=O)[C@H](C)NC(=O)[C@H](CCCCN)NC(=O)[C@H](CCCCN)NC(=O)[C@@H](N)CCCCN)CCSCC(=O)NCC[C@@H](C(=O)N[C@@H](C)C(=O)O)NC(=O)CNC(=O)[C@H](Cc2ccccc2)NC(=O)[C@H]([C@@H](C)O)NC(=O)[C@H](CC(=O)O)NC(=O)CNC(=O)[C@H](CCCNC(=N)N)NC(=O)[C@@H]2CCCN2C1=O [Cyclic peptide 88, KKKA-(Hcy)-IPRGDTFG(Dab(acetyl))A] (H-KKKA[hCys]IPRGDTFG[Dab]A-OH; linker 5-14 via X2) |  | A (The residual rate of the cyclic peptide is 70% or more.) |  |
| > 7.30 |  | C[C@@H]1NC(=O)[C@H](Cc2ccccc2)NC(=O)[C@H]([C@@H](C)O)NC(=O)[C@H](CC(=O)O)NC(=O)CNC(=O)[C@H](CCCNC(=N)N)NC(=O)[C@@H]2CCCN2C(=O)[C@H](Cc2ccc(O)cc2)NC(=O)[C@@H](NC(=O)[C@H](CCCCN)NC(=O)[C@H](CCCCN)NC(=O)[C@@H](N)CCCCN)CCSCC(=O)NCC[C@@H](C(=O)O)NC1=O [Cyclic peptide 148, KKK-(Hcy)-YPRGDTFA(Dab(acetyl))] (H-KKK[hCys]YPRGDTFA[Dab]-OH; linker 4-13 via X2) |  |  | A (The residual rate of the cyclic peptide is 70% or more.) |
|  | 7.00 to 7.30 | N=C(N)NCCC[C@@H]1NC(=O)[C@H](Cc2ccc(O)cc2)NC(=O)[C@H](CC(N)=O)NC(=O)[C@H](CC(=O)O)NC(=O)CNC(=O)[C@H](CCCNC(=N)N)NC(=O)[C@@H]2CCCN2C(=O)[C@H](CCC(=O)O)NC(=O)[C@@H](NC(=O)[C@H](CCCCN)NC(=O)[C@H](CCCCN)NC(=O)[C@@H](N)CCCCN)CCSCC(=O)NCC[C@@H](C(=O)O)NC1=O [Cyclic peptide 44, KKK-(Hcy)-EPRGDNYR(Dab(acetyl))] (H-KKK[hCys]EPRGDNYR[Dab]-OH; linker 4-13 via X2) |  | A (The residual rate of the cyclic peptide is 70% or more.) |  |
| > 7.30 |  | C[C@H](NC(=O)[C@H](CCCCN)NC(=O)[C@H](CCCCN)NC(=O)[C@@H](N)CCCCN)C(=O)N[C@H]1CCSCC(=O)NCC[C@@H](C(=O)O)NC(=O)[C@H](C)NC(=O)[C@H](Cc2ccccc2)NC(=O)[C@H]([C@@H](C)O)NC(=O)[C@H](CC(=O)O)NC(=O)CNC(=O)[C@H](CCCNC(=N)N)NC(=O)[C@@H]2CCCN2C(=O)[C@H]([C@@H](C)O)NC1=O [Cyclic peptide 158, KKKA-(Hcy)-TPRGDTFA(Dab(acetyl))] (H-KKKA[hCys]TPRGDTFA[Dab]-OH; linker 5-14 via X2) |  |  | A (The residual rate of the cyclic peptide is 70% or more.) |
| 7.00 to 7.30 |  | CC(C)[C@@H]1NC(=O)[C@H](CC(=O)O)NC(=O)CNC(=O)[C@H](CCCNC(=N)N)NC(=O)[C@H]([C@@H](C)O)NC(=O)[C@H](C(C)C)NC(=O)[C@@H](NC(=O)[C@H](C)NC(=O)[C@H](CCCCN)NC(=O)[C@H](CCCCN)NC(=O)[C@@H](N)CCCCN)CCSCC(=O)NCC[C@@H](C(=O)N[C@@H](C)C(=O)O)NC(=O)[C@H]([C@@H](C)O)NC(=O)[C@H](Cc2ccccc2)NC1=O [Cyclic peptide 113, KKKA-(Hcy)-VTRGDVFT(Dab(acetyl))A] (H-KKKA[hCys]VTRGDVFT[Dab]A-OH; linker 5-14 via X2) |  |  | A (The residual rate of the cyclic peptide is 70% or more.) |
| > 7.30 |  | CC[C@H](C)[C@@H]1NC(=O)[C@@H](NC(=O)[C@H](C)N)CCSCC(=O)NCC[C@@H](C(=O)NCC(=O)O)NC(=O)[C@H](C)NC(=O)[C@H](Cc2ccccc2)NC(=O)[C@H](CO)NC(=O)[C@H](CC(=O)O)NC(=O)CNC(=O)[C@H](CCCNC(=N)N)NC(=O)[C@@H]2CCCN2C1=O [Cyclic peptide 127, A-(Hcy)-IPRGDSFA(Dab(acetyl))G] (H-A[hCys]IPRGDSFA[Dab]G-OH; linker 2-11 via X2) |  |  | A (The residual rate of the cyclic peptide is 70% or more.) |
|  | 7.00 to 7.30 | CC[C@H](C)[C@@H]1NC(=O)[C@@H](NC(=O)CNC(=O)[C@H](CCCCN)NC(=O)[C@H](CCCCN)NC(=O)[C@@H](N)CCCCN)CCSCC(=O)NCC[C@@H](C(=O)N[C@@H](C)C(=O)O)NC(=O)[C@H](Cc2ccccc2)NC(=O)[C@H](CC(N)=O)NC(=O)[C@H](CC(=O)O)NC(=O)CNC(=O)[C@H](CCCNC(=N)N)NC(=O)[C@@H]2CCCN2C1=O [Cyclic peptide 6, KKKG-(Hcy)-IPRGDNF(Dab(acetyl))A] (H-KKKG[hCys]IPRGDNF[Dab]A-OH; linker 5-13 via X2) |  | A (The residual rate of the cyclic peptide is 70% or more.) |  |
